For test [1], the target named is HCoV-229E 3CLpro (Human coronavirus 229E, UniProt P0C6X1). The test can be described thus: HCoV-229E 3CLpro inhibition assay (FRET). The class given is biochemical.
In test [2] the target is MERS-CoV 3CLpro (Middle East respiratory syndrome-related coronavirus, UniProt K9N7C7). The test can be described thus: biochemical.
Test [3] addresses SARS-CoV 3CLpro (Severe acute respiratory syndrome coronavirus, UniProt P0C6X7). The test can be described thus: biochemical.
In test [4] the target is SARS-CoV-2 3CLpro (Severe acute respiratory syndrome coronavirus 2, UniProt P0DTD1). The experiment in a line: biochemical.

MERS-CoV 3CLpro, sequence (K9N7C7 3248-3553): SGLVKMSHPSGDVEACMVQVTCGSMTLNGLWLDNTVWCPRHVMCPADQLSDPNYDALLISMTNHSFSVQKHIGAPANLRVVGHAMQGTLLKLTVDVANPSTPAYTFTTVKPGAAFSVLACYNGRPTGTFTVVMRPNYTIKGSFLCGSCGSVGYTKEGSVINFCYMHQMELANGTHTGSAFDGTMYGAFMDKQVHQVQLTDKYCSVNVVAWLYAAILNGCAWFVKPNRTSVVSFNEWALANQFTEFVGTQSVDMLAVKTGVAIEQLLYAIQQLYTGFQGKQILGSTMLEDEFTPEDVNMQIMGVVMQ
HCoV-229E 3CLpro, sequence (P0C6X1 2966-3267): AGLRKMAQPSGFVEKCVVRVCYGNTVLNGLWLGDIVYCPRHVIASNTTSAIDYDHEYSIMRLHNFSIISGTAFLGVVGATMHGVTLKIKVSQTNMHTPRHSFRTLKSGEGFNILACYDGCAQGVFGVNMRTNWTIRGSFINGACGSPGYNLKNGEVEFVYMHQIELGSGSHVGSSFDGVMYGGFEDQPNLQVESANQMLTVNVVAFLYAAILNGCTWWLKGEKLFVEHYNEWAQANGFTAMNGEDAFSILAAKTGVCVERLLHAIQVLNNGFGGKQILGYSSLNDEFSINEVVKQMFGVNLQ

Take `CC[C@H](C)[C@H](NC(=O)C(F)F)C(=O)N1C[C@@H]2CCC[C@@H]2[C@H]1C(=O)NN(C[C@@H]1CCNC1=O)C(=O)[C@@H](F)Cl` [Example 127, N-[(1S,2S)-1-[(3S,3aS,6aR)-3-[[[(2S)-2-chloro-2-fluoro-acetyl]-[[(3S)-2-oxopyrrolidin-3-yl]methyl]amino]carbamoyl]-3,3a,4,5,6,6a-hexahydro-1H-cyclopenta[c]pyrrole-2-carbonyl]-2-methyl-butyl]-2,2-difluoro-acetamide]: the IC50 in test [1] was found to be 35 nM; in test [2] it was 68 nM; in test [3] it was 12 nM; in test [4] it was 10 nM.
For `CC[C@@H](C)[C@H](NC(=O)C1CC(F)(F)C1)C(=O)N1C[C@@H]2CCC[C@@H]2[C@H]1C(=O)NN(C[C@@H]1CCNC1=O)C(=O)[C@H](F)Cl` [Example 128, N-[(1S,2R)-1-[(3S,3aS,6aR)-3-[[[(2R)-2-chloro-2-fluoro-acetyl]-[[(3S)-2-oxopyrrolidin-3-yl]methyl]amino]carbamoyl]-3,3a,4,5,6,6a-hexahydro-1H-cyclopenta[c]pyrrole-2-carbonyl]-2-methyl-butyl]-3,3-difluoro-cyclobutanecarboxamide] the same measures were 36 nM, 97 nM, 18 nM and 11 nM.
For `CCC(CC)[C@H](NC(=O)C1CC1)C(=O)N1C[C@H]2[C@@H]([C@H]1C(=O)NN(C[C@@H]1CCNC1=O)C(=O)[C@H](F)Cl)C2(C)C` [Example 129, N-[(1S)-1-[(1R,2S,5S)-2-[[[(2R)-2-chloro-2-fluoro-acetyl]-[[(3S)-2-oxopyrrolidin-3-yl]methyl]amino]carbamoyl]-6,6-dimethyl-3-azabicyclo[3.1.0]hexane-3-carbonyl]-2-ethyl-butyl]cyclopropanecarboxamide], the IC50 amounted to 29 nM in test [1], 104 nM in test [2], 16 nM in test [3] and 11 nM in test [4].
For `CCC(CC)[C@H](NC(=O)C1CC(F)(F)C1)C(=O)N1C[C@H]2[C@@H]([C@H]1C(=O)NN(C[C@@H]1CCNC1=O)C(=O)[C@H](F)Cl)C2(C)C` [Example 130, N-[(1S)-1-[(1R,2S,5S)-2-[[[(2R)-2-chloro-2-fluoro-acetyl]-[[(3S)-2-oxopyrrolidin-3-yl]methyl]amino]carbamoyl]-6,6-dimethyl-3-azabicyclo[3.1.0]hexane-3-carbonyl]-2-ethyl-butyl]-3,3-difluoro-cyclobutanecarboxamide] the same measures were 32 nM, 87 nM, 19 nM and 12 nM.
As for `CCC(CC)[C@H](NC(=O)C(F)F)C(=O)N1C[C@H]2[C@@H]([C@H]1C(=O)NN(C[C@@H]1CCNC1=O)C(=O)[C@H](F)Cl)C2(C)C` [Example 131, N-[(1S)-1-[(1R,2S,5S)-2-[[[(2R)-2-chloro-2-fluoro-acetyl]-[[(3S)-2-oxopyrrolidin-3-yl]methyl]amino]carbamoyl]-6,6-dimethyl-3-azabicyclo[3.1.0]hexane-3-carbonyl]-2-ethyl-butyl]-2,2-difluoro-acetamide], the IC50 is 26 nM in test [1], 158 nM in test [2], 14 nM in test [3] and 10 nM in test [4].
Take `CCC(CC)[C@H](NC(=O)C1(F)CC1)C(=O)N1C[C@H]2[C@@H]([C@H]1C(=O)NN(C[C@@H]1CCNC1=O)C(=O)[C@H](F)Cl)C2(C)C` [Example 132, N-[(1S)-1-[(1R,2S,5S)-2-[[[(2R)-2-chloro-2-fluoro-acetyl]-[[(3S)-2-oxopyrrolidin-3-yl]methyl]amino]carbamoyl]-6,6-dimethyl-3-azabicyclo[3.1.0]hexane-3-carbonyl]-2-ethyl-butyl]-1-fluoro-cyclopropanecarboxamide]: the IC50 amounted to 25 nM in test [1], 106 nM in test [2], 14 nM in test [3] and 10 nM in test [4].
Take `CCC(CC)[C@H](NC(=O)C1(F)CC1)C(=O)N1C[C@H]2[C@@H]([C@H]1C(=O)NN(C[C@@H]1CCNC1=O)C(=O)[C@@H](F)Cl)C2(C)C` [Example 133, N-[(1S)-1-[(1R,2S,5S)-2-[[[(2S)-2-chloro-2-fluoro-acetyl]-[[(3S)-2-oxopyrrolidin-3-yl]methyl]amino]carbamoyl]-6,6-dimethyl-3-azabicyclo[3.1.0]hexane-3-carbonyl]-2-ethyl-butyl]-1-fluoro-cyclopropanecarboxamide]: the IC50 in test [1] came to 40 nM; in test [2], 106 nM; in test [3], 32 nM; in test [4], 20 nM.
As for `CCC(CC)[C@H](NC(=O)C1CC(F)(F)C1)C(=O)N1C[C@@H]2CCC[C@@H]2[C@H]1C(=O)NN(C[C@@H]1CCNC1=O)C(=O)[C@H](F)Cl` [Example 134, N-[(1S)-1-[(3S,3aS,6aR)-3-[[[(2R)-2-chloro-2-fluoro-acetyl]-[[(3S)-2-oxopyrrolidin-3-yl]methyl]amino]carbamoyl]-3,3a,4,5,6,6a-hexahydro-1H-cyclopenta[c]pyrrole-2-carbonyl]-2-ethyl-butyl]-3,3-difluoro-cyclobutanecarboxamide], the IC50 was found to be 36 nM in test [1], 97 nM in test [2], 14 nM in test [3] and 10 nM in test [4].
Consider `CCC(CC)[C@H](NC(=O)C1CC1)C(=O)N1C[C@@H]2CCC[C@@H]2[C@H]1C(=O)NN(C[C@@H]1CCNC1=O)C(=O)[C@H](F)Cl` [Example 135, N-[(1S)-1-[(3S,3aS,6aR)-3-[[[(2R)-2-chloro-2-fluoro-acetyl]-[[(3S)-2-oxopyrrolidin-3-yl]methyl]amino]carbamoyl]-3,3a,4,5,6,6a-hexahydro-1H-cyclopenta[c]pyrrole-2-carbonyl]-2-ethyl-butyl]cyclopropanecarboxamide], for which the IC50 in test [1] turned out to be 39 nM; in test [2], 131 nM; in test [3], 15 nM; in test [4] it was 11 nM.
As to `CCC(CC)[C@H](NC(=O)C(F)F)C(=O)N1C[C@@H]2CCC[C@@H]2[C@H]1C(=O)NN(C[C@@H]1CCNC1=O)C(=O)[C@H](F)Cl` [Example 136, N-[(1S)-1-[(3S,3aS,6aR)-3-[[[(2R)-2-chloro-2-fluoro-acetyl]-[[(3S)-2-oxopyrrolidin-3-yl]methyl]amino]carbamoyl]-3,3a,4,5,6,6a-hexahydro-1H-cyclopenta[c]pyrrole-2-carbonyl]-2-ethyl-butyl]-2,2-difluoro-acetamide], the 50% inhibitory concentration (IC50) in test [1] was determined as 55 nM; in test [2], 74 nM; in test [3] it was 15 nM; in test [4], 16 nM.
With `CCC(CC)[C@H](NC(=O)C1(F)CC1)C(=O)N1CC(C)(C)C[C@H]1C(=O)NN(C[C@@H]1CCNC1=O)C(=O)[C@H](F)Cl` [Example 138, N-[(1S)-1-[(2S)-2-[[[(2R)-2-chloro-2-fluoro-acetyl]-[[(3S)-2-oxopyrrolidin-3-yl]methyl]amino]carbamoyl]-4,4-dimethyl-pyrrolidine-1-carbonyl]-2-ethyl-butyl]-1-fluoro-cyclopropanecarboxamide], the IC50 in test [1] stood at 54 nM; in test [2] it was 283 nM; in test [3], 25 nM; in test [4], 16 nM.
For `CCC(CC)[C@H](NC(=O)C(F)F)C(=O)N1CC(C)(C)C[C@H]1C(=O)NN(C[C@@H]1CCNC1=O)C(=O)[C@H](F)Cl` [Example 139, N-[(1S)-1-[(2S)-2-[[[(2R)-2-chloro-2-fluoro-acetyl]-[[(3S)-2-oxopyrrolidin-3-yl]methyl]amino]carbamoyl]-4,4-dimethyl-pyrrolidine-1-carbonyl]-2-ethyl-butyl]-2,2-difluoro-acetamide], the IC50 in test [1] is 35 nM; in test [2] it was 139 nM; in test [3], 18 nM; in test [4], 14 nM.
Turning to `CCC(C)(C)[C@H](NC(=O)[C@H](C)F)C(=O)N1C[C@H]2[C@@H]([C@H]1C(=O)NN(C[C@@H]1CCNC1=O)C(=O)[C@H](F)Cl)C2(C)C` [Example 140, (2S)—N-[(1S)-1-[(1R,2S,5S)-2-[[[(2R)-2-chloro-2-fluoro-acetyl]-[[(3S)-2-oxopyrrolidin-3-yl]methyl]amino]carbamoyl]-6,6-dimethyl-3-azabicyclo[3.1.0]hexane-3-carbonyl]-2,2-dimethyl-butyl]-2-fluoro-propanamide], the IC50 in test [1] was found to be 31 nM; in test [2] it was 94 nM; in test [3] it was 25 nM; in test [4], 11 nM.
Turning to `CCC(C)(C)[C@H](NC(=O)[C@@H](C)F)C(=O)N1C[C@H]2[C@@H]([C@H]1C(=O)NN(C[C@@H]1CCNC1=O)C(=O)[C@H](F)Cl)C2(C)C` [Example 141, (2R)—N-[(1S)-1-[(1R,2S,5S)-2-[[[(2R)-2-chloro-2-fluoro-acetyl]-[[(3S)-2-oxopyrrolidin-3-yl]methyl]amino]carbamoyl]-6,6-dimethyl-3-azabicyclo[3.1.0]hexane-3-carbonyl]-2,2-dimethyl-butyl]-2-fluoro-propanamide], the IC50 in test [1] turned out to be 35 nM; in test [2], 117 nM; in test [3], 15 nM; in test [4], 10 nM.
For `CCC(C)(C)[C@H](NC(=O)C1CC1)C(=O)N1C[C@H]2[C@@H]([C@H]1C(=O)NN(C[C@@H]1CCNC1=O)C(=O)[C@H](F)Cl)C2(C)C` [Example 142, N-[(1S)-1-[(1R,2S,5S)-2-[[[(2R)-2-chloro-2-fluoro-acetyl]-[[(3S)-2-oxopyrrolidin-3-yl]methyl]amino]carbamoyl]-6,6-dimethyl-3-azabicyclo[3.1.0]hexane-3-carbonyl]-2,2-dimethyl-butyl]cyclopropanecarboxamide] the same measures were 31 nM, 83 nM, 13 nM and 10 nM.

One may read the IC50 as the point on the concentration scale where inhibition reaches its midpoint.

Source of the values: patent publication US20250059171A1 (Hoffmann-La Roche Inc., priority 2021, published 2025).
